Results as given in patent US7741488B2, “Tetrahydropyridothiophenes as antiproliferative agents for the treatment of cancer” (4SC AG, priority 2005, dated 2010).

Tests used:
[1] = test system: RKO (RKOp27) human colon adenocarcinoma cells; experiment: Alamar Blue cell viability assay, anti-proliferative/cytotoxic activity on proliferating (uninduced) RKO p27 cells; type: cell-based; settings: RKOp27, 72 h, proliferating cells without inducer Ponasterone A
Description: The anti-proliferative/cytotoxic activity of the compounds described herein, can be tested on subclones of RKO (RKOp27) human colon adenocarcinoma cells (Schmidt et al., Oncogene 19, 2423-2429; 2000) using the Alamar Blue cell viability assay (described in O'Brien et al. Eur J Biochem 267, 5421-5426, 2000). The compounds are dissolved as 20 mM solutions in dimethylsulfoxide (DMSO) and subsequently diluted in semi-logarithmic steps. DMSO dilutions are further diluted 1:100 into Dulbecco's modified Eagle's medium (DMEM) containing 10% fetal calf serum to a final concentration twice as much as the final concentration in the test. RKO subclones are seeded into 96 well flat bottom plates at a density of 4000 cells per well in a volume of 50 μl per well. 24 hours after seeding the 50 μl each of the compound dilutions in DMEM medium are added into each well of the 96 Well plate. Each compound dilution is tested as quadruplicates. Wells containing untreated control cells are filled with 50 μl DMEM medium containing 1% DMSO. The cells are then incubated with the substances for 72 hours at 37° C. in a humidified atmosphere containing 5% carbon dioxide. To determine the viability of the cells, 10 μl of an Alamar Blue solution (Biosource) are added and the fluorescence is measured at an extinction of 544 nm and an emission of 590 nm. For the calculation of the cell viability the emission value from untreated cells is set as 100% viability and the emission rates of treated cells are set in relation to the values of untreated cells. Viabilities are expressed as % values.
The corresponding IC50 values of the compounds for anti-proliferative/cytotoxic activity are determined from the concentration-effect curves.
Representative IC50 values for anti-proliferation/cytotoxicity determined in the mentioned assay follow from the following table A, in which the numbers of the compound correspond to the numbers of the examples.

[2] = test system: RKOp27 colon adenocarcinoma cells arrested by expression of ectopic p27Kip1; experiment: Alamar Blue cell viability assay on RKO p27 cells arrested by Ponasterone A induced p27Kip1 (cell cycle specific mode of action); type: cell-based; settings: Homo sapiens, 72 hours, cells arrested by p27Kip1 induced with 10 μM Ponasterone A
Description: To determine the cell cycle specific mode of action, subclones of RKO colon adenocarcinoma cells (RKOp27 or RKOp21 as described by Schmidt et al. in Oncogene 19, 2423-2429; 2000) are seeded into 96 well flat bottom plates at a density of 16000 cells per well in a volume of 50 μl per well in DMEM growth medium with 10% FCS containing 10 μM Ponasterone A. 24 hours after seeding the 50 μl each of the compound dilutions in DMEM medium are added into each well of the 96 Well plate. Each compound dilution is tested as quadruplicates. Wells containing untreated control cells are filled with 50 μl DMEM medium containing 1% DMSO. The cells are then incubated with the substances for 72 hours at 37° C. in a humidified atmosphere containing 5% carbon dioxide. To determine the viability of the cells, 10 μl of an Alamar Blue solution (Biosource) are added and the fluorescence was measured at an extinction of 544 nm and an emission of 590 nm. For the calculation of the cell viability the emission value from untreated cells is set as 100% viability and the emission rates of treated cells are set in relation to the values of untreated cells. Viabilities are expressed as % values. Viability is compared of proliferating cells grown in the absence of the inducer Ponasterone A, versus viability of cells arrested by the expression of ectopic p27Kip1 induced by Ponasterone A.

SMILES	IC50 [1] [nM]	IC50 [2] [nM]
COc1ccccc1CCC(=O)Nc1sc2c(c1C#N)CCN(C(=O)OCc1ccncc1)C2 [Example 28, 3-Cyano-2-[3-(2-methoxy-phenyl)-propanoylamino]-4,7-dihydro-5H-thieno[2,3-c]pyridine-6-carboxylic acid pyridin-4-ylmethyl ester]	≤ 300	> 100000
COc1cccc(CCC(=O)Nc2sc3c(c2C#N)CCN(C(=O)OCc2ccccn2)C3)c1 [Example 29, 3-Cyano-2-[3-(3-methoxy-phenyl)-propanoylamino]-4,7-dihydro-5H-thieno[2,3-c]pyridine-6-carboxylic acid pyridin-2-ylmethyl ester]	≤ 300	> 100000
COc1ccccc1CCC(=O)Nc1sc2c(c1C#N)CCN(C(=O)OCC1COC(C)(C)O1)C2 (stereo not shown) [Example 30, 3-Cyano-2-[3-(2-methoxy-phenyl)-propanoylamino]-4,7-dihydro-5H-thieno[2,3-c]pyridine-6-carboxylic acid 2,2-dimethyl-[1,3]dioxolan-4-ylmethyl ester]	≤ 300	> 100000
COc1ccccc1CCC(=O)Nc1sc2c(c1C#N)CCN(C(=O)OCC(O)CO)C2 (stereo not shown) [Example 32, 3-Cyano-2-[3-(2-methoxy-phenyl)-propanoylamino]-4,7-dihydro-5H-thieno[2,3-c]pyridine-6-carboxylic acid 2,3-dihydroxy-propyl ester]	≤ 300	> 100000
CCOc1ccccc1CCC(=O)Nc1sc2c(c1C#N)CCN(C(=O)OCC(O)CO)C2 (stereo not shown) [Example 33, 3-Cyano-2-[3-(2-ethoxy-phenyl)-propanoylamino]-4,7-dihydro-5H-thieno[2,3-c]pyridine-6-carboxylic acid 2,3-dihydroxy-propyl ester]	≤ 300	> 100000
COc1ccccc1CCC(=O)Nc1sc2c(c1C#N)CCN(C(=O)OCCO)C2 [Example 34, 3-Cyano-2-[3-(2-methoxy-phenyl)-propanoylamino]-4,7-dihydro-5H-thieno[2,3-c]pyridine-6-carboxylic acid 2-hydroxy-ethyl ester]	≤ 300	> 100000
CCOc1ccccc1CCC(=O)Nc1sc2c(c1C#N)CCN(C(=O)OCCO)C2 [Example 35, 3-Cyano-2-[3-(2-ethoxy-phenyl)-propanoylamino]-4,7-dihydro-5H-thieno[2,3-c]pyridine-6-carboxylic acid 2-hydroxy-ethyl ester]	≤ 300	> 100000
COc1cccc(CCC(=O)Nc2sc3c(c2C#N)CCN(C(=O)OCc2cccnc2)C3)c1 [Example 36, 3-Cyano-2-[3-(3-methoxy-phenyl)-propanoylamino]-4,7-dihydro-5H-thieno[2,3-c]pyridine-6-carboxylic acid pyridin-3-ylmethyl ester]	≤ 300	> 100000
COc1cccc(CCC(=O)Nc2sc3c(c2C#N)CCN(C(=O)OCc2ccncc2)C3)c1 [Example 37, 3-Cyano-2-[3-(3-methoxy-phenyl)-propanoylamino]-4,7-dihydro-5H-thieno[2,3-c]pyridine-6-carboxylic acid pyridin-4-ylmethyl ester]	≤ 300	> 100000
COc1cccc(CCC(=O)Nc2sc3c(c2C#N)CCN(C(=O)OCCc2ccccn2)C3)c1 [Example 38, 3-Cyano-2-[3-(3-methoxy-phenyl)-propanoylamino]-4,7-dihydro-5H-thieno[2,3-c]pyridine-6-carboxylic acid 2-pyridin-2-yl-ethyl ester]	300 to 2000	> 100000
CCOC(=O)N1CCc2c(sc(NC(=O)CCc3ccccc3OC(F)(F)F)c2C#N)C1 [Example 39, 3-Cyano-2-[3-(2-trifluoromethoxy-phenyl)-propanoylamino]-4,7-dihydro-5H-thieno[2,3-c]pyridine-6-carboxylic acid ethyl ester]	≤ 300	> 100000
CCOc1ccccc1CCC(=O)Nc1sc2c(c1C#N)CCN(C(=O)OCCOC)C2 [Example 40, 3-Cyano-2-[3-(2-ethoxy-phenyl)-propanoylamino]-4,7-dihydro-5H-thieno[2,3-c]pyridine-6-carboxylic acid 2-methoxy-ethyl ester]	≤ 300	> 100000
CCOc1ccccc1CCC(=O)Nc1sc2c(c1C#N)CCN(C(=O)OCc1ccccn1)C2 [Example 41, 3-Cyano-2-[3-(2-ethoxy-phenyl)-propanoylamino]-4,7-dihydro-5H-thieno[2,3-c]pyridine-6-carboxylic acid pyridin-2-ylmethyl ester]	≤ 300	> 100000
CCOc1ccccc1CCC(=O)Nc1sc2c(c1C#N)CCN(C(=O)OCc1cccnc1)C2 [Example 42, 3-Cyano-2-[3-(2-ethoxy-phenyl)-propanoylamino]-4,7-dihydro-5H-thieno[2,3-c]pyridine-6-carboxylic acid pyridin-3-ylmethyl ester]	≤ 300	> 100000
CCOc1ccccc1CCC(=O)Nc1sc2c(c1C#N)CCN(C(=O)OCc1ccncc1)C2 [Example 43, 3-Cyano-2-[3-(2-ethoxy-phenyl)-propanoylamino]-4,7-dihydro-5H-thieno[2,3-c]pyridine-6-carboxylic acid pyridin-4-ylmethyl ester]	≤ 300	≥ 40000
CCOc1ccccc1CCC(=O)Nc1sc2c(c1C#N)CCN(C(=O)OCCc1ccccn1)C2 [Example 44, 3-Cyano-2-[3-(2-ethoxy-phenyl)-propanoylamino]-4,7-dihydro-5H-thieno[2,3-c]pyridine-6-carboxylic acid 2-pyridin-2-yl-ethyl ester]	≤ 300	> 100000
COCCOC(=O)N1CCc2c(sc(NC(=O)CCc3cccc(OC)c3)c2C#N)C1 [Example 45, 3-Cyano-2-[3-(3-methoxy-phenyl)-propanoylamino]-4,7-dihydro-5H-thieno[2,3-c]pyridine-6-carboxylic acid 2-methoxy-ethyl ester]	≤ 300	> 100000
COc1ccc(OC)c(CCC(=O)Nc2sc3c(c2C#N)CCN(C(=O)OCCO)C3)c1 [Example 46, 3-Cyano-2-[3-(2,5-dimethoxy-phenyl)-propanoylamino]-4,7-dihydro-5H-thieno[2,3-c]pyridine-6-carboxylic acid 2-hydroxy-ethyl ester]	300 to 2000	> 100000
COc1ccc(C)cc1CCC(=O)Nc1sc2c(c1C#N)CCN(C(=O)OCCc1ccccn1)C2 [Example 48, 3-Cyano-2-[3-(2-methoxy-5-methyl-phenyl)-propanoylamino]-4,7-dihydro-5H-thieno[2,3-c]pyridine-6-carboxylic acid 2-pyridin-2-yl-ethyl ester]	300 to 2000	> 100000
COc1ccc(OC)c(CCC(=O)Nc2sc3c(c2C#N)CCN(C(=O)OCc2cccnc2)C3)c1 [Example 50, 3-Cyano-2-[3-(2,5-dimethoxy-phenyl)-propanoylamino]-4,7-dihydro-5H-thieno[2,3-c]pyridine-6-carboxylic acid pyridin-3-ylmethyl ester]	300 to 2000	> 100000
COc1ccc(C)cc1CCC(=O)Nc1sc2c(c1C#N)CCN(C(=O)OCc1cccnc1)C2 [Example 51, 3-Cyano-2-[3-(2-methoxy-5-methyl-phenyl)-propanoylamino]-4,7-dihydro-5H-thieno[2,3-c]pyridine-6-carboxylic acid pyridin-3-ylmethyl ester]	≤ 300	> 100000
COc1ccc(C)cc1CCC(=O)Nc1sc2c(c1C#N)CCN(C(=O)OCC(O)CO)C2 (stereo not shown) [Example 52, 3-Cyano-2-[3-(2-methoxy-5-methyl-phenyl)-propanoylamino]-4,7-dihydro-5H-thieno[2,3-c]pyridine-6-carboxylic acid 2,3-dihydroxy-propyl ester]	300 to 2000	> 100000
COc1cccc(CCC(=O)Nc2sc3c(c2C#N)CCN(C(=O)OCCO)C3)c1 [Example 53, 3-Cyano-2-[3-(3-methoxy-phenyl)-propanoylamino]-4,7-dihydro-5H-thieno[2,3-c]pyridine-6-carboxylic acid 2-hydroxy-ethyl ester]	300 to 2000	> 100000
